Earlier results as cited in patent EP4778926A1, “DEUTERATED DIARYL GLYCOLURIL TETRAMER COMPOUND AND USE THEREOF” (Shanghai Institute of Organic Chemistry, Chinese Academy of …, priority 2023, dated 2025).
Where two headings read alike, the source gives them in different places.

How the values were obtained:
[1] = rats; pancuronium bromide (0.5 mg/kg); neostigmine 0.24 mg/kg; from literature (Liu et al.)
[2] = for TOF→0.9 time, Average time: rats, Rocuronium bromide (3.5 mg/kg), from literature (Liu et al.)
[3] = for TOF→0.9 time, Average value: rats, Vecuronium Bromide (0.7 mg/kg), from literature (Liu et al.)
[4] = rats; Cisatracurium Besylate (0.6 mg/kg); neostigmine 0.24 mg/kg; from literature (Liu et al.)

Row | SMILES | TOF→0.9 time, Average value [1] [s] | TOF→0.9 time, Average time ([2]; neostigmine 0.24 mg/kg) [s] | TOF→0.9 time, Average value ([3]; neostigmine 0.24 mg/kg) [s] | TOF→0.9 time, Average time [4] [s] | TOF→0.9 time, Average time ([2]; Sugammadex Sodium 25 mg/kg) [s] | time that TOF recovered to 0.9 ([2]; rocuronium bromide, sugammadex sodium at the same dose (25 mg/kg), literature data) [s] | TOF→0.9 time, Average value ([3]; Sugammadex Sodium 25 mg/kg) [s] | time that TOF recovered to 0.9 ([3]; vecuronium bromide, sugammadex sodium at the same dose (25 mg/kg), literature data) [s]
1 | CN(C)C(=O)Oc1cccc([N+](C)(C)C)c1 [neostigmine] | 1371 | 363 | 315 | 210 | – | – | – | –
2 | O=C([O-])CCSC[C@H]1O[C@@H]2O[C@H]3[C@H](O)[C@@H](O)[C@@H](O[C@H]4[C@H](O)[C@@H](O)[C@@H](O[C@H]5[C@H](O)[C@@H](O)[C@@H](O[C@H]6[C@H](O)[C@@H](O)[C@@H](O[C@H]7[C@H](O)[C@@H](O)[C@@H](O[C@H]8[C@H](O)[C@@H](O)[C@@H](O[C@H]9[C@H](O)C(O)[C@@H](O[C@H]1[C@H](O)[C@H]2O)O[C@@H]9CSCCC(=O)[O-])O[C@@H]8CSCCC(=O)[O-])O[C@@H]7CSCCC(=O)[O-])O[C@@H]6CSCCC(=O)[O-])O[C@@H]5CSCCC(=O)[O-])O[C@@H]4CSCCC(=O)[O-])O[C@@H]3CSCCC(=O)[O-].[Na+].[Na+].[Na+].[Na+].[Na+].[Na+].[Na+].[Na+] (some centres unmarked) [Sugammadex Sodium] | – | – | – | – | 52 | 52 | 18 | 18
